The source of these data is patent US10227360B2, “Compounds for use as GPR120 agonists” (PIRAMAL ENTERPRISES LIMITED, priority 2014, dated 2019).

Structures are written as SMILES.

By EC50 is commonly meant the concentration that produces a half-maximal response. A higher EC50 goes with a less potent agent.

GPR120L receptor, sequence (Q5NUL3 other isoform, or with tags, fused parts or gaps): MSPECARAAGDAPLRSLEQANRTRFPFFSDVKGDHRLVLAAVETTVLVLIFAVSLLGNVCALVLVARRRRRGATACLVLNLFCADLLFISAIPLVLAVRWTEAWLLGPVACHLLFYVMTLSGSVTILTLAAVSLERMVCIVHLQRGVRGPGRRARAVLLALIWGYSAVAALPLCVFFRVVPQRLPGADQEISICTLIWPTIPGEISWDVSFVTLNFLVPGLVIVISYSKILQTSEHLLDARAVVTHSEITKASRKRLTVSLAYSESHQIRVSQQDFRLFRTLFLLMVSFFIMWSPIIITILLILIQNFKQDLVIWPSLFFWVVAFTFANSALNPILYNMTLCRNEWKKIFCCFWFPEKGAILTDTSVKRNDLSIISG

This test deals with GPR120L receptor (Homo sapiens (Human), UniProt Q5NUL3). As to the kind of experiment: Beta (β) arrestin 2 Interaction Assay (BRET assay), β-galactosidase enzyme fragment complementation. The note with it: CHO-K1 cells stably expressing the GPR120L receptor; β-arrestin recruitment; 2 hours incubation. In kind it is cell-based. How it is done:
Beta (β) arrestin 2 Interaction Assay (BRET assay) was performed using CHO-K1 cells stably expressing the GPR120L receptor using β-galactosidase (Beta gal) enzyme fragment complementation assay. The measurement of GPR120 activation upon agonist activation was directly provided by β-arrestin recruitment. One day before the β-arrestin 2 assay, CHO-K1 cells were seeded and incubated overnight at 37° C. in a 5% CO2 humidified atmosphere. Cells were treated with the test compounds in the various concentrations ranging from 30 μM to 1 nM and incubated for 2 hours for GPCR (GPR120) activation. Extent of Arrestin recruitment was measured by adding detection reagents for Beta gal complementation assay and was further incubated for 1 hour. The chemi-luminescent signal was detected on Polar Star (BMG Labtech). The dose-response curve was analyzed using Sigma Plot/Graph Pad. The EC50 (concentration of the test compounds where 50% of compounds' maximal activity is observed) values were calculated from the dose-response curve.
Turning to `N#CC1(c2ccc(-c3ccc(F)cc3COc3ccc(CCC(=O)O)nc3)cc2)CC1` [Example 18, 3-(5-((4′-(1-Cyanocyclopropyl)-4-fluoro-[1,1′-biphenyl]-2-yl)methoxy)pyridin-2-yl)propanoic acid], the concentration for a half-maximal effect (EC50) was 0.01 to 0.5 µM.
With `C=C1CCCc2nc(-c3ccc(F)cc3COc3ccc(CCCC(=O)O)cc3)sc21` [Example 25, 4-(4-((5-Fluoro-2-(7-methylene-4,5,6,7-tetrahydrobenzo[d]thiazol-2-yl)benzyl)oxy)phenyl)butanoic acid] the figure was 0.5 to 5 µM.
With `N#CC1(c2ccc(-c3ccc(F)cc3COc3ccc(CCC(=O)O)cc3)cc2)CC1` [Example 5, 3-(4-((4′-(1-Cyanocyclopropyl)-4-fluoro-[1,1′-biphenyl]-2-yl)methoxy)phenyl)propanoic acid] the figure was 0.01 to 0.5 µM.
In turn, `O=C(O)CCCc1ccc(OCc2cc(F)ccc2-c2ccc(C3(O)CCC3)s2)cc1` [Example 12, 4-(4-((5-Fluoro-2-(5-(1-hydroxycyclobutyl)thiophen-2-yl)benzyl)oxy)phenyl)butanoic acid] showed a 50% effective concentration (EC50) of 0.5 to 5 µM.
In the case of `O=C(O)CCCc1ccc(OCc2cc(F)ccc2-c2ccc3c(c2)CC3)cc1` [Example 10, 4-(4-((2-(Bicyclo[4.2.0]octa-1(6),2,4-trien-3-yl)-5-fluorobenzyl)oxy)phenyl)butanoic acid] it was 0.01 to 0.5 µM; in that of `O=C(O)CCCc1ccc(OCc2cc(F)ccc2-c2ccc(C3CC3(F)F)cc2)cc1` (stereo not shown) [Example 43, 4-(4-((4′-(2,2-Difluorocyclopropyl)-4-fluoro-[1,1′-biphenyl]-2-yl)methoxy)phenyl)butanoic acid], 0.01 to 0.5 µM; in that of `O=C(O)CCCc1ccc(OCc2cc(F)ccc2-c2cnc3c(c2)CCC3)cc1` [Example 24, 4-(4-((2-(6,7-Dihydro-5H-cyclopenta[b]pyridin-3-yl)-5-fluorobenzyl)oxy)phenyl)butanoic acid], 0.01 to 0.5 µM.
With `C=C1CCCc2cc(-c3ccc(F)cc3COc3ccc(CCCC(=O)O)cc3)ccc21` [Example 36, 4-(4-((5-Fluoro-2-(5-methylene-5,6,7,8-tetrahydronaphthalen-2-yl)benzyl)oxy)phenyl)butanoic acid] the figure was 0.01 to 0.5 µM; with `N#CC1(c2ccc(-c3ccc(F)cc3COc3ccc(CCCC(=O)O)cc3)s2)CC1` [Example 1, 4-(4-((2-(5-(1-Cyanocyclopropyl)thiophen-2-yl)-5-fluorobenzyl)oxy)phenyl)butanoic acid], 0.01 to 0.5 µM.
Molecule `O=C(O)CCCc1ccc(OCc2cc(F)ccc2-c2nc3c(s2)CCCCC3)cc1` [Example 41, 4-(4-((5-Fluoro-2-(5,6,7,8-tetrahydro-4H-cyclohepta[d]thiazol-2-yl)benzyl)oxy)phenyl)butanoic acid] returned an EC50 of 0.01 to 0.5 µM.
In the case of `O=C(O)CCc1ccc(OCc2cc(F)ccc2-c2ccc(C3COC3)nc2)cc1` [Example 17, 3-(4-((5-Fluoro-2-(6-(oxetan-3-yl)pyridin-3-yl)benzyl)oxy)phenyl)propanoic acid] it was 5 to 50 µM; in that of `O=C(O)CCCc1ccc(OCc2cc(F)ccc2-c2nc(C3CC3)cs2)cc1` [Example 50, 4-(4-((2-(4-Cyclopropylthiazol-2-yl)-5-fluorobenzyl)oxy)phenyl)butanoic acid], 0.5 to 5 µM.
In the case of `O=C(O)CCCc1ccc(OCc2cc(F)ccc2-c2nc3c(s2)CCC3)cc1` [Example 47, 4-(4-((2-(5,6-dihydro-4H-cyclopenta[d]thiazol-2-yl)-5-fluorobenzyl)oxy)phenyl)butanoic acid] it was 0.01 to 0.5 µM.
With `O=C(O)CCCc1ccc(OCc2cc(F)ccc2-c2scnc2C2CC2)cc1` [Example 32, 4-(4-((2-(4-Cyclopropylthiazol-5-yl)-5-fluorobenzyl)oxy)phenyl)butanoic acid], the half-maximal effective concentration (EC50) was in the range of 5 to 50 µM.
The molecule `COC1(C)CCCc2cc(-c3ccc(F)cc3COc3ccc(CCCC(=O)O)cc3)ccc21` (stereo not shown) [Example 39, 4-(4-((5-Fluoro-2-(5-methoxy-5-methyl-5,6,7,8-tetrahydronaphthalen-2-yl)benzyl)oxy)phenyl)butanoic acid] displayed an EC50 of 5 to 50 µM.
Molecule `O=C(O)CCCc1ccc(OCc2ccccc2-c2ccc3c(c2)CCC3)cc1` [Example 33, 4-(4-((2-(2,3-Dihydro-1H-inden-5-yl)benzyl)oxy)phenyl)butanoic acid] displayed an EC50 of 0.01 to 0.5 µM.
In the case of `O=C(O)CCCc1ccc(OCc2cc(F)ccc2-c2nnc(C3CC3)s2)cc1` [Example 44, 4-(4-((2-(5-Cyclopropyl-1,3,4-thiadiazol-2-yl)-5-fluorobenzyl)oxy)phenyl)butanoic acid] it was 0.01 to 0.5 µM; in that of `O=C(O)CCc1ccc(OCc2cc(F)ccc2-c2ccc(C3(O)CCC3)cc2)cc1` [Example 14, 3-(4-((4-Fluoro-4′-(1-hydroxycyclobutyl)-[1,1′-biphenyl]-2-yl)methoxy)phenyl)propanoic acid], 0.5 to 5 µM; in that of `N#CC1(c2ccc(-c3ccncc3COc3ccc(CCCC(=O)O)cc3)cc2)CC1` [Example 19, 4-(4-((4-(4-(1-Cyanocyclopropyl)phenyl)pyridin-3-yl)methoxy)phenyl)butanoic acid], 0.5 to 5 µM.
With `O=C(O)CCCc1ccc(OCc2ccccc2-c2ccc3c(c2)CC3)cc1` [Example 26, 4-(4-((2-(Bicyclo[4.2.0]octa-1(6),2,4-trien-3-yl)benzyl)oxy)phenyl)butanoic acid] the figure was 0.01 to 0.5 µM; with `O=C(O)CCCc1ccc(OCc2cc(F)ccc2-c2cc3c(s2)CCCC3)cc1` [Example 23, 4-(4-((5-Fluoro-2-(4,5,6,7-tetrahydrobenzo[b]thiophen-2-yl)benzyl)oxy)phenyl)butanoic acid], 0.01 to 0.5 µM.
With `O=C(O)CCc1ccc(OCc2cc(F)ccc2-c2ccc(C3COC3)cc2)cc1` [Example 13, 3-(4-((4-Fluoro-4′-(oxetan-3-yl)-[1,1′-biphenyl]-2-yl)methoxy)phenyl)propanoic acid] the figure was 5 to 50 µM; with `O=C(O)CCc1ccc(OCc2cc(F)ccc2-c2ccc3c(c2)CC3)cn1` [Example 20, 3-(5-((2-(Bicyclo[4.2.0]octa-1(6),2,4-trien-3-yl)-5-fluorobenzyl)oxy)pyridin-2-yl)propanoic acid], 0.5 to 5 µM; with `O=C(O)CCCc1ccc(OCc2cc(F)ccc2-c2ccc3c(c2)CCC=C3)cc1` [Example 35, 4-(4-((2-(7,8-Dihydronaphthalen-2-yl)-5-fluorobenzyl)oxy)phenyl)butanoic acid], 0.01 to 0.5 µM.
`N#CC1(c2ccc(-c3ccc(F)cc3COc3ccc(CCC(=O)O)cc3)cn2)CC1` [Example 6, 3-(4-((2-(6-(1-Cyanocyclopropyl)pyridin-3-yl)-5-fluorobenzyl)oxy)phenyl)propanoic acid] displayed an EC50 of 0.5 to 5 µM.
With `CC1(c2ccc(-c3ccc(F)cc3COc3ccc(CCCC(=O)O)cc3)s2)CC1` [Example 40, 4-(4-((5-Fluoro-2-(5-(1-methylcyclopropyl)thiophen-2-yl)benzyl)oxy)phenyl)butanoic acid] the figure was 0.01 to 0.5 µM; with `Cc1cc(-c2ccc(F)cc2COc2ccc(CCCC(=O)O)cc2)ccc1C1CC1` [Example 29, 4-(4-((4′-cyclopropyl-4-fluoro-3′-methyl-[1,1′-biphenyl]-2-yl)methoxy)phenyl)butanoic acid], 0.01 to 0.5 µM.
In the case of `O=C(O)CCCc1ccc(OCc2ccccc2-c2ccc3c(c2)CCCC3)cc1` [Example 27, 4-(4-((2-(5,6,7,8-tetrahydronaphthalen-2-yl)benzyl)oxy)phenyl)butanoic acid] it was 0.01 to 0.5 µM.
In the case of `O=C(O)CCCc1ccc(OCc2cc(F)ccc2-c2ccc3c(c2)CCCC3)cc1` [Example 9, 4-(4-((5-Fluoro-2-(5,6,7,8-tetrahydronaphthalen-2-yl)benzyl)oxy)phenyl)butanoic acid] it was 0.01 to 0.5 µM; in that of `O=C(O)CCCc1ccc(OCc2cc(F)ccc2-c2ccc(C3CCC3)s2)cc1` [Example 28, 4-(4-((2-(5-Cyclobutylthiophen-2-yl)-5-fluorobenzyl)oxy)phenyl)butanoic acid], 0.01 to 0.5 µM; in that of `O=C(O)CCCc1ccc(OCc2cc(F)ccc2-c2ccc(C3CC3)s2)cc1` [Example 11, 4-(4-((2-(5-Cyclopropylthiophen-2-yl)-5-fluorobenzyl)oxy)phenyl)butanoic acid], 0.01 to 0.5 µM.
Molecule `O=C(O)CCCc1ccc(OCc2cc(F)ccc2-c2ccc3c(c2)CCO3)cc1` [Example 22, 4-(4-((2-(2,3-Dihydrobenzofuran-5-yl)-5-fluorobenzyl)oxy)phenyl)butanoic acid] yielded an EC50 of 0.01 to 0.5 µM.
`O=C(O)CCCc1ccc(OCc2cc(F)ccc2-c2ccc3c(c2)CCCC3=O)cc1` [Example 34, 4-(4-((5-Fluoro-2-(5-oxo-5,6,7,8-tetrahydronaphthalen-2-yl)benzyl)oxy)phenyl)butanoic acid]: the concentration for a half-maximal effect (EC50) was 0.5 to 5 µM.
In the case of `O=C(O)CCCc1ccc(OCc2cc(F)ccc2-c2ccc(C3CC3)nc2)cc1` [Example 30, 4-(4-((2-(6-Cyclopropylpyridin-3-yl)-5-fluorobenzyl)oxy)phenyl)butanoic acid] it was 0.01 to 0.5 µM; in that of `CC1=CCCc2cc(-c3ccc(F)cc3COc3ccc(CCCC(=O)O)cc3)ccc21` [Example 37], 0.5 to 5 µM.
With `O=C(O)CCCc1ccc(OCc2cc(F)ccc2-c2nc3c(s2)COCC3)cc1` [Example 48, 4-(4-((2-(6,7-Dihydro-4H-pyrano[4,3-d]thiazol-2-yl)-5-fluorobenzyl)oxy)phenyl)butanoic acid] the figure was 0.5 to 5 µM.
`O=C(O)CCCc1ccc(OCc2cc(F)ccc2-c2nc3c(s2)CCCC3)cc1` [Example 46, 4-(4-((5-Fluoro-2-(4,5,6,7-tetrahydrobenzo[d]thiazol-2-yl)benzyl)oxy)phenyl)butanoic acid] had an EC50 of 0.01 to 0.5 µM.
